Measurements: patent publication US7939556B2, “Imidazole derivatives and their use for modulating the GABAA receptor complex” (Neurosearch A/S, priority 2005, dated 2011)

Molecular target: benzodiazepine modulatory unit of the GABAA receptor complex
Assay: In vitro inhibition of 3H-flunitrazepam (3H-FNM) binding
Conditions: inhibition of specific binding of 3H-FNM (1 nM), rat cerebral cortex membranes, 40 min at 2° C.
Method: In Vitro Inhibition of ^3H-Flunitrazepam (^3H—FNM) Binding
The GABA recognition site and the benzodiazepine modulatory unit can selectively be labelled with ^3H-flunitrazepam.
Preparations are performed at 0-4° C. unless otherwise indicated. Cerebral cortex from male Wistar rats (150-200 g) is homogenised for 5-10 sec in 20 ml Tris-HCl (30 mM, pH 7.4) using an Ultra-Turrax homogeniser. The suspension is centrifuged at 27,000×g for 15 min and the pellet is washed three times with buffer (centrifuged at 27,000×g for 10 min). The washed pellet is homogenized in 20 ml of buffer and incubated on a water bath (37° C.) for 30 min to remove endogenous GABA and then centrifuged for 10 min at 27,000×g. The pellet is then homogenized in buffer and centrifuged for 10 min at 27,000×g. The final pellet is resuspended in 30 ml buffer and the preparation is frozen and stored at −20° C.
The membrane preparation is thawed and centrifuged at 2° C. for 10 min at 27,000×g. The pellet is washed twice with 20 ml 50 mM Tris-citrate, pH 7.1 using an Ultra-Turrax homogeniser and centrifuged for 10 min at 27,000×g. The final pellet is resuspended in 50 mM Tris-citrate, pH 7.1 (500 ml buffer per g of original tissue), and then used for binding assays. Aliquots of 0.5 ml tissue are added to 25 μl of test solution and 25 μl of ^3H—FNM (1 nM, final concentration), mixed and incubated for 40 min at 2° C. Non-specific binding is determined using Clonazepam (1 μM, final concentration). After incubation the samples are added 5 ml of ice-cold buffer and poured directly onto Whatman GF/C glass fibre filters under suction and immediately washed with 5 ml ice-cold buffer. The amount of radioactivity on the filters is determined by conventional liquid scintillation counting. Specific binding is total binding minus non-specific binding.
25-75% inhibition of specific binding must be obtained, before calculation of an IC50.
The test value will be given as IC50 (the concentration (μM) of the test substance which inhibits the specific binding of ^3H—FNM by 50%).
Co is specific binding in control assays, and […]

Row | IC50 [nM] | SMILES
1 | 24 | CCOC(=O)c1cn(-c2cccc(COCc3ccccn3)c2)cn1 [Compound 11a, 1-[3-(Pyridin-2-ylmethoxymethyl)-phenyl]-1H-imidazole-4-carboxylic acid ethyl ester]
2 | 24 | CCOC(=O)c1cn(-c2cccc(Br)c2)cn1 [Compound 16, 1-(3-Bromo-phenyl)-1H-imidazole-4-carboxylic acid ethyl ester]
3 | 180 | COC(=O)c1cn(-c2cccc([N+](=O)[O-])c2)cn1 [Compound 20, 1-(3-Nitro-phenyl)-1H-imidazole-4-carboxylic acid methyl ester]
